Assay results reported in US9101628B2, “Methods and composition of treating a flaviviridae family viral infection” (The Board of Trustees of the Leland Stanford Junior …, priority 2007, dated 2015).
Read-outs that look alike come from different tables or passages of the source.

Tests used:
hERG channel = hERG channel (Homo sapiens, UniProt Q12809)
[1] = target: NS4B (binding to 3′ terminus negative strand HCV RNA) (Hepatitis C virus genotype 1a, UniProt P27958); test: In vitro microfluidic NS4B RNA binding assay; conditions: wild type NS4B, 10 nM clemizole
W55R mutant J6/JFH RNA = test: Luciferase reporter-linked replication assay, W55R mutant; assay type: cell-based, HCV
Excerpt: Two of the clemizole-resistant NS4B mutants were characterized in detail. The first, W55R is depicted in FIG. 6a. It involves the substitution of an arginine for the tryptophan at amino acid 55 within a predicted cytoplasmically-oriented segment of NS4B. This mutation is sufficient to confer a clemizole-resistant phenotype in cells: Huh7.5 cells transfected with either whole cell RNA extracted from the W55R mutant cells (FIG. 6b) or with in vitro-transcribed J6/JFH RNA encoding this point mutation and a linked luciferase reporter gene (FIG. 6c) were unaffected by 10 μM clemizole.
The plasmid FL-J6/JFH-5′C19Rluc2AUbi that consists of the full-length HCV genome and expresses Renilla luciferase was a gift from Dr. Charles M. Rice. The W55R mutation was introduced into this plasmid by site-directed mutagenesis (using the QuikChange kit (Stratagene)).
Medium was changed daily.

HuR = target: T1, HuR (Homo sapiens, UniProt Q15717); test: HuR RNA binding by microfluidics (specificity of hits); conditions: 0.1 mM
T1 construct: The open reading frames (ORF) of HuR and HuD were obtained from the ORFeome library of cDNA clones (Open biosystems); V5-his (C); made in house; host or cells: cell-free expression on the microfluidic device, from pcDNA-Dest 40 carrying the ORFeome clone (Open Biosystems)
Method: Specificity of hits identified in the small molecule screen: To determine the specificity of the hits identified in the small molecule screen, the HuR protein (one of the human RNA binding protein used to validate our RNA binding assay) was selected. […] Binding of HuR to the consensus 4A RNA sequence was tested in the presence of the inhibitory molecules shown to inhibit RNA binding by NS4B. […] Similarly, 0.1 mM of the identified compounds didn't have an inhibitory effect on binding of HuR to the 3′ terminus of the negative HCV RNA strand.

[2] = tested on: replicon harboring the W55R mutation; test: Whole cell RNA electroporation, clemizole resistant clone; assay type: cell-based, HCV; conditions: 10 μM clemizole; 2.5 μM SCH503034
Method: Whole cell RNA was extracted from clemizole-resistant replicon clones and from untreated replicon cells using TRIzol reagent (Invitrogen). Equal amounts of whole cell RNA (50 μg) were electroporated into Huh7.5 cells as described above. Cells were grown under G418 selection in the presence or absence of clemizole for 3 weeks. The number of colonies was determined using Image J (NIH) following fixation and staining with Crystal violet.
Cells transfected with whole cell RNA extracted from wild type replicon cells were sensitive to both drugs.

[3] = tested on: replicon harboring the A156T mutation; test: Whole cell RNA electroporation, SCH503034 resistant clone; assay type: cell-based, HCV
W55R NS4B mutant = target: T2, W55R NS4B mutant (Hepatitis C virus genotype 1a, UniProt P27958, A1893V/D1840G/F1898S/L1839I/R1905H/S1900A/W1766R); test: In vitro microfluidic RNA binding assay, W55R NS4B mutant; set-up: species or system HCV; conditions: 10 nM clemizole
T2 construct: made in house; host or cells: in vitro transcription/translation, inferred from the way wild-type NS4B-GFP was made; not repeated for the mutant

[4] = tested on: infectious HCV clone (J6/JFH); test: Real-time PCR assay of HCV replication in HCV-infected Huh7.5 cells; assay type: cell-based; conditions: real-time PCR (FIG. 8)
Method: 5×10^4 Huh7.5 ells were infected with cell culture-grown HCV titered at 1.4×10^4 TCID50/ml, as described. 2 hours after infection, cells were washed three times in culture medium. Cells were then treated daily with various concentrations of clemizole. After 72 hours, samples were subjected to the viability assay described above, following which TRIzol Reagent (Invitrogen) was added and total cell RNA was extracted in triplicates according to the manufacturer's instructions. Reverse transcription was then performed using random hexamers and Superscript II reverse transcriptase (Invitrogen, Carlsbad, Calif.). Real-time PCR was performed on the resulting cDNA to quantify the amounts of HCV and actin RNA (in separate reactions) in each sample. Standards were made using an in vitro-transcribed HCV RNA and human actin standard (Applied Biosystems, Foster City, Calif.). HCV was quantified using primers […] (SEQ ID NO 8) and […] (SEQ ID NO 9) and probe 6-carboxyfluorescein-[…]-6 (SEQ ID NO 10) carboxytetramethylrhodamine. Actin was quantified using beta-actin control reagents (Applied Biosystems) according to the manufacturer's instructions. HCV RNA level was adjusted to actin level and normalized relative to untreated samples.

HCV (genotype 4) = test: Treatment of patients chronically infected with HCV; assay type: in vivo, human; conditions: clemizole 100 milligrams p.o. BID alone, 4 weeks, 3 patients
Method: After the first four weeks of clemizole monotherapy, pegylated interferon (180 micrograms Pegasus (Roche) s.q. per week) was added.

[5] = tested on: subgenomic Bart 79I HCV RNA replicon (genotype 1b); test: microbe, parasite or virus in culture; assay type: cell-based; conditions: Hepatitis C virus; genotype 1b luciferase reporter, 72 hr; read-out: EC50 HCV replication
R214Q NS4B mutant HCV = test: Luciferase reporter linked replication assay, R214Q mutant; assay type: cell-based
[6] = Alamar Blue-based cell viability assay; set-up: species or system human; conditions: human
Method: (§1) Total volume per well is 100 μl.
(§2) (or until there is a color change).

Huh7.5 cells = test: Alamar Blue-based cell viability assay; set-up: species or system human; conditions: at antiviral concentrations, Alamar Blue, 72 hr
Method: as §1, §2

[7] = tested on: genotype 1b subgenomic HCV replicon (Bart 79I); assay type: cell-based

Structure (SMILES) | IC50 (hERG channel) [µM] | reduction of RNA binding [1] [fold] | effect on replication of W55R mutant (W55R mutant J6/JFH RNA; 10 μM clemizole) | EC50 relative to the EC50 on the wild type RNA (W55R mutant J6/JFH RNA; W55R mutant) [times] | effect on binding of HuR to 4A RNA sequence (HuR) | sensitivity of Huh7.5 cells transfected with whole cell RNA from W55R clone [2] | sensitivity of Huh7.5 cells transfected with whole cell RNA from A156T clone [3] | reduction of RNA binding (W55R NS4B mutant) [fold] | HCV replication levels [4] | HCV viral loads in serum (HCV (genotype 4)) | EC50 [5] [µM] | EC50 relative to the EC50 on the wild type RNA (R214Q NS4B mutant HCV) [times] | CC50 at 72 h ([6]; genotype 1b experiments, Alamar Blue, 72 hr) [µM] | CC50 at 72 h ([6]; genotype 2a experiments, Alamar Blue-based and CellTiter-Blue assay) [µM] | cellular toxicity (Huh7.5 cells) | decrease of the frequency of resistant colonies selected with 1 μM of SCH503034 ([7]; 4 μM clemizole added) [folds] | decrease of the frequency of resistant colonies selected with 1 μM of SCH503034 ([7]; 8 μM clemizole added) [folds]
COc1ccc(Cn2cnc3c(NS(C)(=O)=O)c(C)c(C)cc32)cc1 [Compound 106] | > 10 |  |  |  |  |  |  |  |  |  |  |  |  |  |  |  | 
Clc1ccc(Cn2c(CN3CCCC3)nc3ccccc32)cc1 [clemizole] |  | ~2 | unaffected | 2.25 | No inhibitory effect | unaffected | but not to clemizole | ~2 | inhibits HCV replication | decreased significantly | 23 ± 7 | ~5 | 40 ± 5 | 35 ± 0.5 | no measurable toxicity | 6 | 18
